Measured values published in paper PMC3033209 (Journal of applied microbiology, 2009).

Biological target: T1, β-glucosidase from L. brevis SK3 (Levilactobacillus brevis, UniProt Q03P52)
T1 sequence (Q03P52 1-751): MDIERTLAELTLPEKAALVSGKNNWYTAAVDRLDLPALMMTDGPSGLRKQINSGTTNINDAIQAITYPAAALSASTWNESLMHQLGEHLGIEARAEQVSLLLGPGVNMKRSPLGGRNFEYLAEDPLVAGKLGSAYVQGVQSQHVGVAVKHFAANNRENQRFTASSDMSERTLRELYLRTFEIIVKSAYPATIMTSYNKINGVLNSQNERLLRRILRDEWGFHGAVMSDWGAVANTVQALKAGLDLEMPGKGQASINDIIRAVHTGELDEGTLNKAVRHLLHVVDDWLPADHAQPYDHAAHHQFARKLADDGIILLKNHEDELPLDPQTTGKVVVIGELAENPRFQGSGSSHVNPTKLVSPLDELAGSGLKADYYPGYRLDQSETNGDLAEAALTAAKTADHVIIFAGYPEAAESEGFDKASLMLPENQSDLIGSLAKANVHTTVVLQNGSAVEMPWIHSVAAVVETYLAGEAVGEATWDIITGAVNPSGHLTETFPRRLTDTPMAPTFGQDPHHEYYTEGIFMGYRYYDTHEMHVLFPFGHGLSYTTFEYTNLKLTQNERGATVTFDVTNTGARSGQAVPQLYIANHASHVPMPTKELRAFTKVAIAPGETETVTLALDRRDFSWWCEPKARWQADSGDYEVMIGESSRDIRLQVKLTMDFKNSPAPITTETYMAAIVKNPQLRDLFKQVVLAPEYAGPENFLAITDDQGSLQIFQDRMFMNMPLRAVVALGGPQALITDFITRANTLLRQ
Experiment: standard glucosidase assay, p-nitrophenol at […] nm after stop
Type: biochemical
Conditions: inhibitor, 10 mM pNPβGlc, pH 5.5, 37 °C, 10 min

SMILES | Relative activity (%) (200000 µM) | Relative activity (%) (10000 µM)
O=C(O)[C@H](O)[C@@H](O)[C@H](O)[C@H](O)CO [Gluconic acid] | 17% | 
O=C1O[C@H](CO)[C@@H](O)[C@H](O)[C@H]1O [Glucono-δ-lactone] |  | 14%
OC[C@H]1OC(O)[C@H](O)[C@@H](O)[C@@H]1O (stereo partly drawn) [Glucose] | 59% | 
